We go through six molecules from patent US4873236A, “Condensed diazepinones, processes for preparing them and pharmaceutical compositions containing these compounds” (Dr. Karl Thomae GmbH, priority 1986, dated 1989).

Like-named read-outs stand apart in the source and are kept apart here. Some results are limits rather than exact numbers.

The nature of one series: Solubility in water. Particulars: in words.
For series [1], the target named is T1, muscarinic receptors, heart (Rattus norvegicus, UniProt P10980).
T1 construct: After removal of the heart and submandibular gland; from tissue; host or cells: whole heart of male Sprague-Dawley rats, homogenate
T1 sequence (P10980 1-466): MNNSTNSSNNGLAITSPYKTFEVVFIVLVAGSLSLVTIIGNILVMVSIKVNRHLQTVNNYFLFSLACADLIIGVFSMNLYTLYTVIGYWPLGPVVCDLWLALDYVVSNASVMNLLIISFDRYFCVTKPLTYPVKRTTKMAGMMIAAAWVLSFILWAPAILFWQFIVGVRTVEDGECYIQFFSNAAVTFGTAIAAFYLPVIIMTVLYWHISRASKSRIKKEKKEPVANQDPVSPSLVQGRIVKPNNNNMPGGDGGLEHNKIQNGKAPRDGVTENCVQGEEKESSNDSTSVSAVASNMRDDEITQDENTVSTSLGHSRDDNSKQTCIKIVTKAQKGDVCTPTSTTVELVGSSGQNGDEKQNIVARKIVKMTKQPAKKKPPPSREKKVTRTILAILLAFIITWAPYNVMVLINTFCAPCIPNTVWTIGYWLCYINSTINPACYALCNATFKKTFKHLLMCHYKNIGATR
The experiment in a line: Receptor bonding test in vitro, heart (displacement of 3H-N-methylscopolamine). The class given is binding, Sprague-Dawley rats. Particulars: 0.3 nmolar 3H-NMS, 30° C., 45 min, heart. Background: In a radioligand displacement assay an active substance lowers the binding of a labelled ligand.

Series [2] has as its target T2, muscarinic receptors, submandibular gland (Rattus norvegicus, UniProt P08483).
T2 construct: After removal of the heart and submandibular gland; from tissue; host or cells: submandibular gland of male Sprague-Dawley rats, homogenate
Description: Receptor bonding test in vitro, submandibular gland (displacement of 3H-N-methylscopolamine). Type of series: binding, Sprague-Dawley rats. Particulars: 0.3 nmolar 3H-NMS, 30° C., 45 min.

The next series addresses T3, M2 (vagal bradycardia) (Rattus norvegicus, UniProt P10980).
T3 construct: The bradycardia produced by vagus stimulation; from tissue; host or cells: whole animal (male THOM rats), heart
T3 sequence (P10980 1-466): T1 sequence (P10980 1-466)
The experiment in a line: M1/M2 selectivity in the rat: inhibition of vagally stimulated bradycardia (M2). Particulars: iv, 5 min, read-out: M2 activity (rat) ED50. Type of series: in vivo, male THOM rats. How it is done: The method used was described by Hammer and Giachetti (Life Sciences 31, 2991-2998 (1982)). 5 minutes after intravenous injection of increasing doses of the substance, either the right vagus was electrically stimulated (frequency: 25 Hz; pulse width: 2 ms; duration of stimulus: 30 s; number of volts: supramaximal) or 0.3 mg/kg of McN-A-343 was injected intravenously into male THOM rats. The bradycardia produced by vagus stimulation and the increase in blood pressure produced by McN-A-343 were measured.

Series [3] addresses T4, M1 (rise in blood pressure by McN-A-343) (Rattus norvegicus, UniProt P08482).
T4 construct: from tissue
T4 sequence (P08482 1-460): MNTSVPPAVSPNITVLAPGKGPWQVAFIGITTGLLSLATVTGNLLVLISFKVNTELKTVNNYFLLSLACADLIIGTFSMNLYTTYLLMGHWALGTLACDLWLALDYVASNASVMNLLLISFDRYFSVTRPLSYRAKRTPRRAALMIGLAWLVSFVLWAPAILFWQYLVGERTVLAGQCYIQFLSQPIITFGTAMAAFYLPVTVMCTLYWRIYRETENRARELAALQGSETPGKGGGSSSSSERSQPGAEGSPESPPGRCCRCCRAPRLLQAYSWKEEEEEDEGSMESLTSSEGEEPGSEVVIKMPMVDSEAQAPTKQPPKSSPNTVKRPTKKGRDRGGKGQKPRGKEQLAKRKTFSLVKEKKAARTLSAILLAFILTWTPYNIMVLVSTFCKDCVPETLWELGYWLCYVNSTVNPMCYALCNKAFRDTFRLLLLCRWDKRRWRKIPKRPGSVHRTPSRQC
Description: M1/M2 selectivity in the rat: inhibition of McN-A-343 blood pressure increase (M1). The class given is in vivo, male THOM rats. Particulars: iv, 5 min.

In series [4] the target is T5, muscarinic receptors of the atrium (Cavia porcellus, UniProt H0VRN8).
T5 construct: In the isolated, spontaneously beating right atrium; from tissue; host or cells: isolated right atrium of guinea pig
T5 sequence (H0VRN8 1-466): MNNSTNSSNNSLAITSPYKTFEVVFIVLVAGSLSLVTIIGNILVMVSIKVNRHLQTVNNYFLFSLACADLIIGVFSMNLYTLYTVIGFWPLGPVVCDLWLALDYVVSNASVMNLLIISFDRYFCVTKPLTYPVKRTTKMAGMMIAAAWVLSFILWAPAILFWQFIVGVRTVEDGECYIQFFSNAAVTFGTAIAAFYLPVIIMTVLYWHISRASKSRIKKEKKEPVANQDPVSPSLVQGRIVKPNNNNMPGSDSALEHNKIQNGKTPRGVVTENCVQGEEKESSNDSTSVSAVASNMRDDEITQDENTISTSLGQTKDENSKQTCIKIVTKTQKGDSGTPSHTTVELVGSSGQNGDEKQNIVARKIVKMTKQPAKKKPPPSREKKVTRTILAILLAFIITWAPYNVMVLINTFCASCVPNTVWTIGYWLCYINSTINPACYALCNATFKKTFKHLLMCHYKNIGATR
Description: Dissociation constants (KB) on spontaneously beating right atrium, methacholine antagonism. Also on record: species or system guinea pig. How it is done:
Dissociation constants (KB values) were determined in vitro on the guinea pig ileum and spontaneously beating atrium. The ileum was removed and incubated in Krebs-Henseleit solution in an organ bath. Contractions were produced by means of increasing concentrations of methacholine (M) so that a full concentration-activity curve could be plotted. Then M was washed out, the test substance was added and kept in contact for 30 minutes and again a concentration-activity curve was plotted with M. The dissociation constant was calculated according to Arunlakshana and Schild (Brit. J. Pharmacol. 14, 48, 1959) from the dosage ratio (DR), i.e. the extent of displacement of the concentration-activity curve.
In the isolated, spontaneously beating right atrium M reduced the heart rate as a function of the concentration. This effect was stopped by the addition of an antimuscarinic. Dissociation constants for the muscarinic receptors of the atrium were obtained in the same way as described above. A comparison of the dissociation constants measured in the two different tissues made it possible to identify cardioselective substances.

In series [5] the target is T6, muscarinic receptors, lachrymal glands (Rattus norvegicus, UniProt P08483).
T6 construct: from tissue; host or cells: lachrymal glands of female rats, labelled in vivo
The experiment in a line: Receptor bonding test in vivo, lachrymal glands (3H-NMS). Also on record: species or system female rats. Particulars: iv, 0.5 h, read-out: ID50 Lachrymal glands. How it is done: (§1) For these experiments, female rats with a body weight of about 200 g were used. Before the start of the test the animals were anaesthetised with a dosage of 1.25 g/kg of urethane. The animals were each given the prescribed dosage of test substance by intravenous injection. After 15 minutes, 113 ng/kg of ^3 H-N-methylscopolamine (^3 H-NMS) were administered by the same route. After another 15 minutes the animals were killed and the heart, bronchi and lachrymal glands were removed. These organs were dissolved in Soluene R and the radioactivity was determined. The measurements were assumed to be total bonding. […] ID50 values were determined for the individual organs using these tests.

Another series has as its system salivation. The experiment in a line: Salivation-inhibiting effect on the rat (pilocarpine). Type of series: in vivo, male THOM rats. Particulars: Rattus norvegicus, iv, read-out: Salivation inhibition (rat) ED50. How it is done: The secretion of saliva was triggered by subcutaneous administration of 2 mg/kg of pilocarpine. The saliva was soaked up with blotting paper and the area occupied by the saliva was determined by planimetry every 5 minutes. The dosage of substance which reduced the volume of saliva by 50% was determined graphically.

Series [6] deals with T7, muscarinic receptors, heart atrium (Rattus norvegicus, UniProt P10980).
T7 construct: from tissue; host or cells: heart (atrium, ventricle) of female rats, labelled in vivo
T7 sequence (P10980 1-466): T1 sequence (P10980 1-466)
The experiment in a line: Receptor bonding test in vivo, heart atrium (3H-NMS). Also on record: species or system female rats. Particulars: rat, iv, 0.5 h, read-out: ID50 Heart Atrium. How it is done: as §1

In series [7] the target is T8, muscarinic receptors, heart ventricle (Rattus norvegicus, UniProt P10980).
T8 construct: the heart, bronchi and lachrymal glands were removed; from tissue; host or cells: heart (atrium, ventricle) of female rats, labelled in vivo
T8 sequence (P10980 1-466): T1 sequence (P10980 1-466)
Description: Receptor bonding test in vivo, heart ventricle (3H-NMS). Also on record: species or system female rats. Particulars: iv, 0.5 h, read-out: ID50 Heart Ventricle. How it is done: as §1

Series [8] has as its system muscarinic receptors, bronchi. Description: Receptor bonding test in vivo, bronchi (3H-NMS). Also on record: species or system female rats. Particulars: in vivo binding, i.v., rat, 113 ng/kg 3H-NMS; 30 min. How it is done:
as §1

T6 sequence (P08483 whole entry): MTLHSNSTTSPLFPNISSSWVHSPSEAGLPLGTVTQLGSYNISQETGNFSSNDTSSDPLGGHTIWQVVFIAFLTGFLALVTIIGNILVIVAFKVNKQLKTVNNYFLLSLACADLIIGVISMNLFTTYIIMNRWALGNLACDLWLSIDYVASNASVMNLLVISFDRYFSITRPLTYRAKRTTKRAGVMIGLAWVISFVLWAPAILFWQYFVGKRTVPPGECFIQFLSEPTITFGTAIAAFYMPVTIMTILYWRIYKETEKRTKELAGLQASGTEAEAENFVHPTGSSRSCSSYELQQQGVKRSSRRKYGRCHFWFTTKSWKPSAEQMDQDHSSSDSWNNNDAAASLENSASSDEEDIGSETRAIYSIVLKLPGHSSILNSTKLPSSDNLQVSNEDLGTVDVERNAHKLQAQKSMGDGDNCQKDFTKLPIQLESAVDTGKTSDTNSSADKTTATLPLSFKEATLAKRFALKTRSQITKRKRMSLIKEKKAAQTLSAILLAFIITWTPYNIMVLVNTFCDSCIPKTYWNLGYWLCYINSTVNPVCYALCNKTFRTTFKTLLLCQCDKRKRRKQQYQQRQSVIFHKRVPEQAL
T2 sequence (P08483 whole entry): as above

As to `CCN(CC)CC1CCCCN1CCCNC(=O)N1c2ccccc2NC(=O)c2ccccc21` (stereo not drawn) [Example 8, 5-[[[3-[2-[(Diethylamino)methyl]-piperidin-1-yl]propyl]amino]carbonyl]-5,10-dihydro-11H-dibenzo[b,e][1,4]diazepin-11-one], in “Solubility in water”, the solubility in water result is listed as “Soluble in water”.

The term IC50 denotes the midpoint of a concentration-inhibition curve. Lower therefore signals greater potency. The Kb is the equilibrium dissociation constant of an antagonist, usually derived from a functional assay. With `CCN(CC)CC1CCCCN1CC(=O)N1c2ccccc2C(=O)Nc2cccnc21` (stereo not drawn) [Substance X, 11-[[2-[(diethylamino)methyl]-piperidin-1-yl]acetyl]-5,11-dihydro-6H-pyrido[2,3-b][1,4]benzodiazepin-6-one, reference compound], the half-inhibitory concentration (IC50) in [1] turned out to be 150 nM; in series [2], 5000 nM. Further, the ED50 on M2 (vagal bradycardia) (i.v., 50% reduction in vagal bradycardia) is 0.16 mg/kg; in series [3] (i.v., 50% reduction in blood pressure rise by 0.3 mg/kg McN-A-343, read-out: M1 activity (rat) ED50), 0.988 mg/kg; in series [5], over 30 mg/kg. Also, the antagonist equilibrium constant (Kb) in series [4] (guinea pig spontaneously beating atrium, methacholine, 30 min contact, read-out: KB Heart (dissociation constant)) is 105 nM.

In the case of `Cl.O=C1Nc2cccnc2N(C(=O)NCCN2CCCCC2CN2CCCCC2)c2ccccc21` (stereo not drawn) [Example 39, 5,11-Dihydro-11-[[[2-[2-[(piperidin-1-yl)methyl]-piperidin-1-yl]ethyl]amino]carbonyl]-6H-pyrido[2,3-b][1,4]benzodiazepin-6-one hydrochloride], the solubility in water entry in the series “Solubility in water” is given as “soluble in water”.

For the molecule `CN1CCN(CC(=O)N2c3ccccc3C(=O)Nc3cccnc32)CC1` [Substance Y, 5,11-dihydro-11-[(4-methyl-piperazin-1-yl)acetyl]-6H-pyrido[2,3-b][1,4]benzodiazepin-6-one, reference compound], the ED50 in the series with salivation came to 0.084 mg/kg. Moreover, the Kb in [4] stood at 240 nM.

For `CN(C)CC1CCCCN1CCCCNC(=O)N1c2ccccc2C(=O)Nc2cccnc21` (racemic) [Example 20, D,L-5,11-Dihydro-11-[[[4-[2-[(dimethylamino)methyl]-piperidin-1-yl]butyl]amino]carbonyl]-6H-pyrido[2,3-b][1,4]benzodiazepin-6-one], the solubility in water entry in the series “Solubility in water” is given as “soluble in water”.

Take `CN1C2CCC1CC(OC(=O)C(CO)c1ccccc1)C2` (stereo not drawn) [Substance Z, atropine, reference compound]: the ED50 came out at 0.004 mg/kg on M2 (vagal bradycardia); 0.016 mg/kg in [3] (read-out: M1 activity (rat) ED50); 0.08 mg/kg in [6]; 0.03 mg/kg in series [7]; 0.2 mg/kg in series [5]. Also, the Kb in [4] was determined as 1.41 nM. Besides, the “ID50 Bronchi” value in series [8] was found to be 0.1 mg/kg.
